Data: patent US9982033B2, “Factor VIII polypeptide titers in cell cultures” (Novo Nordisk A/S, priority 2007, dated 2018)

Experiments:
[1] = system: Factor VIII producing cells; assay: Supplementing serum-free cell culture medium of Factor VIII producing cells with OPLS (high-cell density perfusion model); format: cell-based, Chinese Hamster; settings: for Factor VIII productivity / Factor VIII protein specific activity: 24 hours, 35° C.
Source text: Cell line: The cell line used for transfection, dhfr− CHO cells DUKX-B11 cells (Urlaub, G. & Chasin, L. A. (1980) Proc. Natl. Acad. Sci. USA 77, 4216-4220), was adapted to grow in suspension cultures using serum-free medium supplemented with ribonucleosides and deoxyribonucleosides.
Expression vector: Factor VIII transcription is achieved using an adenovirus-SV40 promoter and a selection by a di-hydrofolate reductase selection marker. The expressed Factor VIII molecule consist of the heavy chain (HC) and light chain (LC) of Factor VIII connected with a small linker derived from the B-domain. The B-domain has been removed, since this allows for higher expression of Factor VIII and the biological activity of Factor VIII is retained.
Cell culturing during serum free medium supplementation experiments: For media supplement experiments cells were cultivated in a high-cell density perfusion model in 50 mL shaker tubes with vented cap at 35° C. in serum free medium, as described below. Cells were cultivated in large shaker flasks at 37° C. Cell viability was measured at cell harvest, and this was always >95%. Harvested cells were re-suspended into fresh medium. 2.5 mL of the harvested and re-suspended cells was added to 2.5 mL of fresh medium containing the supplement to give a total volume of 5 mL, with a concentration of 1×10^7 cells/mL. Shaker tubes were then placed in shaker at 35° C. and 250 rpm. After 24 hours, samples were assayed for cell density, viability, CoA, ELISA and Factor VIII protein integrity by Western blot.
CoA assay (Factor VIII activity assay): In the presence of calcium and phospholipids, Factor X is activated to Factor Xa by Factor IXa. This generation is greatly stimulated by Factor VIII, which may be considered as a cofactor in this reaction. By using optimal amounts of Ca^2+ and phospholipids and an excess of Factors IXa and X, the rate of activation of Factor X is solely dependent on the amount of Factor VIII. Factor Xa hydrolyses the chromogenic substrate S-2765 thus liberating the chromophoric group, pNA. The colour is then read photometrically at 405 nm. The generated Factor Xa and thus the intensity of colour is proportional to the Factor VIII activity in the sample. Hydrolysis of S-2765 by thrombin formed is prevented by the addition of the synthetic thrombin inhibitor, I-2581, together with the substrate (Chromogenix Coatest SP Factor VIII, diaPharma)
ELISA: Strip wells are pre-coated with sheep polyclonal antibody to human Factor VIII. Samples are diluted and applied to the wells. The Factor VIII antigen present binds to the coated antibody. After washing away unbound material, peroxidase-labeled sheep detecting antibody is applied and allowed to bind to the captured Factor VIII. The wells are again washed and a solution of TMB (the peroxidase substrate tetramethylbenzidine) is applied and allowed to react for a fixed period of time. A blue color develops which changes to yellow upon quenching the reaction with acid. The color formed is measured spectrophotometrically in a microplate reader at 450 nm. The absorbance at 450 nm is directly proportional to the quantity of Factor VIII antigen captured onto the well (VisuLize, FVIII antigen kit, Affinity biologicals). The assay is calibrated using purified B domain deleted Factor VIII.
OPLS was supplemented to serum free cell culture medium in the indicated concentration according to the experimental details described under materials and methods. The results can be seen from the below Table 3 and from FIGS. 2A and 2B.

[2] = system: BDD Factor VIII producing cells (1C5-SF cell line); assay: Supplementing serum-free medium of BDD Factor VIII producing cells with O-phospho-L-serine and/or a plant hydrolysate; format: cell-based; settings: O-phospho-L-serine 20 mM and/or plant hydrolysate 5 mg/ml, four days after seeding
Description: ELISA: Strip wells are pre-coated with sheep polyclonal antibody to human Factor VIII. Samples are diluted and applied to the wells. The Factor VIII antigen present binds to the coated antibody. After washing away unbound material, peroxidase-labeled sheep detecting antibody is applied and allowed to bind to the captured Factor VIII. The wells are again washed and a solution of TMB (the peroxidase substrate tetramethylbenzidine) is applied and allowed to react for a fixed period of time. A blue color develops which changes to yellow upon quenching the reaction with acid. The color formed is measured spectrophotometrically in a microplate reader at 450 nm. The absorbance at 450 nm is directly proportional to the quantity of Factor VIII antigen captured onto the well (VisuLize, FVIII antigen kit, Affinity biologicals). […]
F25 ELISA: ELISA: Strip wells are pre-coated with sheep polyclonal antibody to human Factor VIII. […] The color formed is measured spectrophotometrically in a microplate reader at 450 nm. The absorbance at 450 nm is directly proportional to the quantity of Factor VIII antigen captured onto the well. […]
The total Factor VIII antigen content of each culture was determined by sandwich ELISA. […]

[3] = OPLS 0.03 mM in serum free medium
[4] = OPLS 0.1 mM in serum free medium
[5] = OPLS 0.3 mM in serum free medium
[6] = OPLS 10 mM in serum free medium
[7] = OPLS 30 mM in serum free medium

## N[C@@H](COP(=O)(O)O)C(=O)O [OPLS, O-Phospho-L-Serine]
[1]; [3]
  Factor VIII productivity: 0.068 pcd
  Factor VIII protein specific activity: 11.8 U/microg
[1]; [4]
  Factor VIII productivity: 0.062 pcd
  Factor VIII protein specific activity: 12.8 U/microg
[1]; [5]
  Factor VIII productivity: 0.052 pcd
  Factor VIII protein specific activity: 12.2 U/microg
[1]; OPLS 1 mM in serum free medium
  Factor VIII productivity: 0.058 pcd
  Factor VIII protein specific activity: 12.6 U/microg
[1]; OPLS 3 mM in serum free medium
  Factor VIII productivity: 0.066 pcd
  Factor VIII protein specific activity: 15.8 U/microg
[1]; [6]
  Factor VIII productivity: 0.10 pcd
  Factor VIII protein specific activity: 15.4 U/microg
[1]; [7]
  Factor VIII productivity: 0.18 pcd
  Factor VIII protein specific activity: 15.0 U/microg
[1]; conclusion in words, FIG. 2A
  specific productivity of Factor VIII producing cells: increases
[1]; conclusion in words, FIG. 2B
  specific activity of Factor VIII: increases
[2]; F25 ELISA versus total Factor VIII antigen
  proportion of Factor VIII with intact heavy chain C-terminal in the medium: increased
[2]; CDM4CHO medium, FIG. 3A-C
  quality of recombinant Factor VIII from cell cultures (specific activity): improved
  yield of recombinant Factor VIII from cell cultures: improved
